Consider seven molecules from patent publication US20060135432A1, “Agonists and antagonists of conadotropin-releasing hormone-2, and use thereof” (priority 2002, published 2006).

The target in assay [1] is T1, rat GnRHR (Rattus norvegicus, UniProt P30969).
T1 construct: expressed in transfected cells; host or cells: GH3 cells, retroviral infection
T1 sequence (P30969 1-327): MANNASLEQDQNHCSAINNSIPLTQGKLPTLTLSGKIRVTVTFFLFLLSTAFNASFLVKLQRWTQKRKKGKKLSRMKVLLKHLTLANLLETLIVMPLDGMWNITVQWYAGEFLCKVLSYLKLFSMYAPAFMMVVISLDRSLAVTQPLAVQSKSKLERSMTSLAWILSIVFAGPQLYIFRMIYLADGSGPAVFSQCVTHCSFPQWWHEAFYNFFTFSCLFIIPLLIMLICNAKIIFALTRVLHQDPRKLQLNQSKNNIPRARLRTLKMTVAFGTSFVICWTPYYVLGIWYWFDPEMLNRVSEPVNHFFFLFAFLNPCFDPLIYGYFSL
Kind of assay: I125-GnRH-2 competitive ligand-receptor binding, membranes of GH3 cells expressing rat GnRHR. The note with it: competition with I125-GnRH-2, 4 °C, 16 hours; read-out: Binding affinity (log IC50 value) (converted). On the procedure:
To determine the binding affinity between GnRH and GnRH receptors, GnRH-2 was radiolabeled with I^125. […] After 48 hours, the cells were homogenized to obtain cellular membranes, which were then dissolved in binding buffer (40 mM Tris, pH 7.4, 2 mM MgCl2). 20 μg of membrane proteins were reacted with I^125-GnRH-2 at 4° C. for 16 hours. […] After the reaction was completed, 1^125-GnRH-2 bound to the receptors was filtered using a Brandel harvester, and cpm was measured using a y-counter.

Assay [2] has as its target T1, rat GnRHR. Kind of assay: Inositol phosphate (IP) production in GH3 cells expressing rat GnRHR. The format is cell-based. The note with it: for EC50: GH3 cells, 30 min, given as log EC50 (negative values). The text has this:
The GnRH receptor, a membrane protein connected with the G protein, activates the G protein when activated by a ligand, and the activated G protein activates phospholipase C and thereby the synthesis of inositol phosphate (IP), which is the second transmitter in cells, is increased. Based on this principle, the activity of a receptor can be investigated by measuring the amount of IP within cells. GH3 cell lines were obtained from the Cell Line Bank at the Cancer Research Center, Seoul National University College of Medicine, located in Seoul, Republic of Korea. The GH3 cell lines were infected with retroviruses comprising genes encoding […]-2, and bfGnRHR-3 which are bullfrog GnRH receptors, and rat GnRHR, and cell lines expressing each of these receptors were obtained. The GH3 cells expressing […]-3, and rat GnRHR were cultured on 12-well plates. After 24 hours, the cells were cultured again for 24 hours in a media containing no inositol, to which H^3-myoinositol was added. […] Thereafter, they were treated with GnRH having a suitable concentration, cultured at 37° C. for another 30 minutes, and then the media was eliminated. The cells were treated with 10 mM of ice-cold formic acid to terminate the reaction, and the cell extracts were mixed with Dowex anionic exchange resins. These resins were washed with distilled water, IP was extracted with 1 M ammonium formate/0.1 M formic acid, and cpm (count per minute) was determined. The GH3 cell lines were infected with retroviruses comprising genes encoding […]-2, and bfGnRHR-3 which are bullfrog GnRH receptors, and rat GnRHR, and cell lines expressing each of these receptors were obtained.

The next assay has as its system TSU-Pri cells. Kind of assay: Binding of radiolabeled GnRH to TSU-Pri prostate cancer cells. The arrangement: species or system human. The note with it: room temperature, 6 hours. The procedure: TSU-Pri, which is one of the prostate cancer cell lines, was cultured along with the radiolabeled I^125GnRH-1 and I^125GnRH-2. […] The radiolabeled GnRH and the cells were cultured at room temperature for 6 hours, and then washed with PBS (phosphate-buffered saline) several times to eliminate the unbound GnRH. Thereafter, the cells were isolated and radioactivity from the cells was measured using a y-counter.

The test system of assay [3] is Primate GnRH-2 receptor. Kind of assay: c-fos-luc luciferase activation in CV-1 cells expressing Primate GnRH-2 receptor. It counts as cell-based. On the procedure:
(§1) Complimentary DNA (cDNA) for a Primate GnRH-2 receptor was obtained from a CV-1 cell genome. […] Plasmids having Primate GnRH-2 receptors where transfected into CV-1 cells. To assay the activity of the receptor, c-fos-luc where a luciferase gene is fused with a c-fos promoter was co-transfected as a probe gene. After 48 hours from transfection, the cells were treated with GnRH-2 agonists and then the activity of luciferase was assayed (Seong et al., Endocrinology vol 144 2003, 454-466).
Of the GnRH-2 receptors, [D-Ala^6]GnRH-2 performed excellently, showing effects about 3 times that of a wild-type ligand, GnRH-2. […] When analogs where the 5th, 7th, and 8th amino acids of [D-Ala^6]GnRH-2 are substituted were used, it was observed that their effects were weaker than [D-Ala^6]GnRH-2, and therefore it can be seen that it is important to maintain His, Trp, and Tyr that are found at the 5th, 7th, and 8th positions of GnRH-2 as they are (FIG. 3b).

In a further assay the test system is bfGnRHR-1. Kind of assay: Inositol phosphate (IP) production in GH3 cells expressing bfGnRHR-1. It counts as cell-based, bullfrog. The text has this:
The GnRH receptor, a membrane protein connected with the G protein, activates the G protein when activated by a ligand, and the activated G protein activates phospholipase C and thereby the synthesis of inositol phosphate (IP), which is the second transmitter in cells, is increased. Based on this principle, the activity of a receptor can be investigated by measuring the amount of IP within cells. GH3 cell lines were obtained from the Cell Line Bank at the Cancer Research Center, Seoul National University College of Medicine, located in Seoul, Republic of Korea. The GH3 cell lines were infected with retroviruses comprising genes encoding […]-2, and bfGnRHR-3 which are bullfrog GnRH receptors, and rat GnRHR, and cell lines expressing each of these receptors were obtained. The GH3 cells expressing […]-3, and rat GnRHR were cultured on 12-well plates. After 24 hours, the cells were cultured again for 24 hours in a media containing no inositol, to which H^3-myoinositol was added. […] Thereafter, they were treated with GnRH having a suitable concentration, cultured at 37° C. for another 30 minutes, and then the media was eliminated. […] These resins were washed with distilled water, IP was extracted with 1 M ammonium formate/0.1 M formic acid, and cpm (count per minute) was determined. […]

Assay [4] relates to Primate GnRH-2 receptor. Kind of assay: Inhibition of GnRH-2-induced c-fos-luc luciferase activity in cells expressing Primate GnRH-2 receptor. The format is cell-based. The note with it: treated at the same time as GnRH-2. The procedure:
as §1
In the same manner as in 2-3 above, Primate GnRH-2 receptors were co-transfected along with c-fos-luc reporter genes, and after 48 hours, GnRH-2 and GnRH-2 antagonists were treated thereinto at the same time and then the effect of GnRH-2 antagonists was observed.

For assay [5], the target named is T1, rat GnRHR. Kind of assay: Inhibition of GnRH-1-induced IP production in GH3 cells expressing rat GnRHR. It counts as cell-based. The procedure:
GH3 cell lines were obtained from the Cell Line Bank at the Cancer Research Center, Seoul National University College of Medicine, located in Seoul, Republic of Korea. The GH3 cell lines were infected with retroviruses comprising genes encoding bfGnRHR-1, bfGnRHR-2, and bfGnRHR-3 which are bullfrog GnRH receptors, and rat GnRHR, and cell lines expressing each of these receptors were obtained. The GH3 cells expressing bfGnRHR-1, bfGnRHR-2, bfGnRHR-3, and rat GnRHR were cultured on 12-well plates. After 24 hours, the cells were cultured again for 24 hours in a media containing no inositol, to which H^3-myoinositol was added. The resultant cells were washed with buffer A (140 mM NaCl, 20 mM HEPES, 4 mM KCl, 8 mM D-Glucose, 1 mM MgCl2, 1 mM CaCl2, 1 mg/ml BSA) and then cultured in buffer A containing 10 mM LiCl at 37°C. for 30 minutes. Thereafter, they were treated with GnRH having a suitable concentration, cultured at 37° C. for another 30 minutes, and then the media was eliminated. The cells were treated with 10 mM of ice-cold formic acid to terminate the reaction, and the cell extracts were mixed with Dowex anionic exchange resins. These resins were washed with distilled water, IP was extracted with 1 M ammonium formate/0.1 M formic acid, and cpm (count per minute) was determined.
However, Trptorelix-1 could reduce the production of IP induced by 1 nM GnRH-2, in a concentration-dependent manner (FIG. 6a to FIG. 6c).

Where a SMILES comes first, the peptide text is derived from it. [ ]: non-standard residue; d: D form. dPhe(4-Cl) = N[C@H](Cc1ccc(Cl)cc1)C(=O)O; d2Nal = N[C@H](Cc1ccc2ccccc2c1)C(=O)O; dCit = NC(=O)NCCC[C@@H](N)C(=O)O; d3Pal = N[C@H](Cc1cccnc1)C(=O)O; pGlu = O=C1CC[C@@H](C(=O)O)N1

For the molecule `NC(=O)CNC(=O)[C@@H]1CCCN1C(=O)[C@H](Cc1ccc(O)cc1)NC(=O)[C@H](Cc1c[nH]c2ccccc12)NC(=O)CNC(=O)[C@H](Cc1c[nH]cn1)NC(=O)[C@H](CO)NC(=O)[C@H](Cc1c[nH]c2ccccc12)NC(=O)[C@H](Cc1c[nH]cn1)NC(=O)[C@@H]1CCC(=O)N1` [GnRH-2] ([pGlu]HWSHGWYPG-NH2), at rat GnRHR [1], the IC50 (as a rule, the midpoint of a concentration-inhibition curve) was 832 nM. Besides, on rat GnRHR [2], the EC50 (in general, the concentration needed to bring the measured effect to its halfway point) was 8.71 nM. The “sensitivity compared with GnRH-1” value at rat GnRHR [2] (rat GnRHR) is “a sensitivity lower than 10-fold”. In the assay with TSU-Pri cells, the “binding of the radiolabeled ligand to TSU-Pri cells” value is “binding with cells was observed” and the “effect of unradiolabeled competitor on binding of radiolabeled GnRH-2 to TSU-Pri cells” value was “the binding was reduced”.
As to “p-Glu-His-Trp-Ser-His-D-Lys-Trp-Tyr-Pro-Gly-NH2 ([pGlu]HWSH[dK]WYPG-NH2; SMILES NCCCC[C@@H](NC(=O)[C@H](Cc1c[nH]cn1)NC(=O)[C@H](CO)NC(=O)[C@H](Cc1c[nH]c2ccccc12)NC(=O)[C@H](Cc1c[nH]cn1)NC(=O)[C@@H]1CCC(=O)N1)C(=O)N[C@@H](Cc1c[nH]c2ccccc12)C(=O)N[C@@H](Cc1ccc(O)cc1)C(=O)N1CCC[C@H]1C(=O)NCC(N)=O) [[D-Lys^6]GnRH-2]”, in the assay with Primate GnRH-2 receptor [3], the “effect reduced, fold, as compared with GnRH-2” value is given as “about 1.5 fold”.
For `NC(=O)CNC(=O)[C@@H]1CCCN1C(=O)[C@H](Cc1ccc(O)cc1)NC(=O)[C@H](Cc1c[nH]c2ccccc12)NC(=O)[C@@H](Cc1c[nH]c2ccccc12)NC(=O)[C@H](Cc1c[nH]cn1)NC(=O)[C@H](CO)NC(=O)[C@H](Cc1c[nH]c2ccccc12)NC(=O)[C@H](Cc1c[nH]cn1)NC(=O)[C@@H]1CCC(=O)N1` [[D-Trp^6]GnRH-2, reference compound] ([pGlu]HWSH[dW]WYPG-NH2), the “effect reduced, fold, as compared with GnRH-2” value with Primate GnRH-2 receptor [3] is given as about 1.2 fold. Besides, at rat GnRHR [1], the IC50 was 97.7 nM. The EC50 at rat GnRHR [2] is 12 nM. Moreover, in the assay with bfGnRHR-1, the “concentration activating bfGnRHR-1, fold lower than GnRH-2” value was “similar”.
“Ac-D2Nal-(4Cl)D-Phe-D-3Pal-Ser-Tyr-DCit-Trp-Leu-Pro-DAla-NH2 (Ac-[d2Nal][dPhe(4-Cl)][d3Pal]SY[dCit]WLP[dA]-NH2; SMILES CC(=O)N[C@H](Cc1ccc2ccccc2c1)C(=O)N[C@H](Cc1ccc(Cl)cc1)C(=O)N[C@H](Cc1cccnc1)C(=O)N[C@@H](CO)C(=O)N[C@@H](Cc1ccc(O)cc1)C(=O)N[C@H](CCCNC(N)=O)C(=O)N[C@@H](Cc1c[nH]c2ccccc12)C(=O)N[C@@H](CC(C)C)C(=O)N1CCC[C@H]1C(=O)N[C@H](C)C(N)=O) [Trptorelix-3]”: the “effect on luciferase activity induced by GnRH-2” value (“effect … by GnRH-2” below) in the assay with Primate GnRH-2 receptor [4] is given as “no effect”.
Turning to `CC(=O)N[C@H](Cc1ccc2ccccc2c1)C(=O)N[C@H](Cc1ccc(Cl)cc1)C(=O)N[C@H](Cc1cccnc1)C(=O)N[C@@H](CO)C(=O)N[C@@H](Cc1ccc(O)cc1)C(=O)N[C@H](CCCNC(N)=O)C(=O)N[C@@H](CC(C)C)C(=O)N[C@@H](CCCNC(=N)N)C(=O)N1CCC[C@H]1C(=O)N[C@H](C)C(N)=O` [Cetrorelix, Ac-D-2Nal-(4Cl)-D-Phe-D-3Pal-Ser-Tyr-D-Cit-Leu-Arg-Pro-D-Ala-NH2, reference compound] (Ac-[d2Nal][dPhe(4-Cl)][d3Pal]SY[dCit]LRP[dA]-NH2), the “effect … by GnRH-2” value in the assay on Primate GnRH-2 receptor [4] was “no effect”. Moreover, on rat GnRHR [5], the IC50 is 0.00933 nM.
Consider “[D-Ala^6]GnRH-1: the agonist of GnRH-1 [reference compound]”, for which, in the assay on Primate GnRH-2 receptor [3], the “sensitivity as compared with GnRH-2” value is given as “very low sensitivity”.
On to `CC(=O)N[C@H](Cc1ccc2ccccc2c1)C(=O)N[C@H](Cc1ccc(Cl)cc1)C(=O)N[C@H](Cc1cccnc1)C(=O)N[C@@H](CO)C(=O)N[C@@H](Cc1c[nH]cn1)C(=O)N[C@H](CCCNC(N)=O)C(=O)N[C@@H](Cc1c[nH]c2ccccc12)C(=O)N[C@@H](Cc1ccc(O)cc1)C(=O)N1CCC[C@H]1C(=O)N[C@H](C)C(N)=O` [Trptorelix-2, Ac-D2Nal-(4Cl)D-Phe-D-3Pal-Ser-His-DCit-Trp-Tyr-Pro-DAla-NH2] (Ac-[d2Nal][dPhe(4-Cl)][d3Pal]SH[dCit]WYP[dA]-NH2), for which the “effect … by GnRH-2” value with Primate GnRH-2 receptor [4] is recorded as “reduced in a concentration-dependent manner”.
